In patent US7087736B1, “Tyrosine DNA phosphodiesterases (TDP) and related polypeptides nucleic acids vectors TDP producing host cells antibodies and methods of use” (priority 1999, dated 2006):

Tested on: Saccharomyces cervisiae strains (parental, enz mutant, HNY243, HNY244)
Test: Sensitivity of yeast strains to killing by drug (colony survival after 24 hrs)
Type: cell-based
Description: The strains were compared for sensitivity to killing by camptothecin. Despite the dramatic difference in TDP activity, the parental line and the backcrossed enz mutant were insensitive to camptothecin. When combined with a disruption of the RAD9 gene, the camptothecin sensitivity of the low activity mutant (strain HNY244) was increased by a factor of 12 relative to the rad9 derivative of the parental strain HNY243. The same difference was observed after the mutant had undergone two additional rounds of backcrossing. In order to confirm that camptothecin-induced damage was due to topoisomerase trapping, the TOP1 gene of HNY244 was disrupted and survival increased nearly 1,000-fold.
Each pool was separately grown and treated with camptothecin for 24 hours. Cells were grown to near-saturation in medium with glycerol in place of dextrose (YPG) to ensure a starting population with few or no petite derivatives in accordance with standard methods. These cells were resuspended at OD650=0.4 in YPD (bacto-yeast extract, peptone and dextrose standard yeast growth medium), grown for 2 hrs and diluted again in YPD to OD650=0.4. Drug was then added and samples were withdrawn immediately and after 24 hrs at 30° C. After dilution and plating on YPD, surviving colonies were counted after 3-4 days of growth. When plasmid-containing strains were assessed for camptothecin sensitivity, YPD was replaced throughout by uracil-deficient minimal medium to ensure plasmid retention. The survivors were amplified by growth in YPD.

| SMILES | camptothecin sensitivity of YBR223c disruption strain (HNY243 with YBR223c ORF disrupted) | camptothecin resistance after transformation (HNY244 transformed with pNS2 or pAXb) | sensitivity to killing by camptothecin (backcrossed enz mutant (low TDP activity)) | increase of camptothecin sensitivity relative to rad9 derivative of parental strain HNY243 (low activity mutant with RAD9 disruption (strain HNY244)) [factor] | sensitivity to killing by camptothecin (parental line (normal TDP activity)) | increase of survival after disruption of TOP1 gene (strain HNY244 with TOP1 disrupted, camptothecin-induced damage) | sensitization of the mutant line to killing (low TDP activity mutant line) |
| --- | --- | --- | --- | --- | --- | --- | --- |
| CC[C@@]1(O)C(=O)OCc2c1cc1n(c2=O)Cc2cc3ccccc3nc2-1 [camptothecin] | very similar to that of HNY244 | improved camptothecin resistance | insensitive | 12 | insensitive | ~1,000 fold | – |
| COS(C)(=O)=O [methyl methane sulfonate] | – | – | – | – | – | – | not sensitized |
